Data as given in patent US20260256808A1, “Istaroxime-Containing Intravenous Formulation for the Treatment of Pre-Cardiogenic Shock and Cardiogenic Shock” (Windtree Therapeutics, Inc., priority 2022, published 2026).
“Also recorded” adds a separate entry of the source.

Tests used:
[1] = system: patients hospitalized with ADHF and reduced LV systolic function; settings: 0.5-1.0-1.5 μg/kg/min, cited from earlier work
[2] = system: patients with AHF and exhibiting pre-cardiogenic shock (SCAI stage B); test: SEISMIC: randomized, double-blind, placebo-controlled study of 24 h istaroxime infusion in pre-cardiogenic shock; format: in vivo, human
Method: Pre-CS was defined as defined as systolic blood pressure (SBP)<90 mmHg without hypoperfusion, venous lactate >2 mmol/L and/or mechanical or inotropic support. The inclusion criteria included AHF-related SCAI stage B pre-CS, 18-85 years of age, an ongoing hospitalization for AHF, left ventricular ejection fraction <40%, persistent hypotension (SBP between 75 and 90 mmHg), heart rate of 75-150 bpm and no need at time of screening or planned use for 6 h thereafter of mechanical support or intravenous therapy to increase BR According to the stage B SCAI classification, patients with clinical signs of peripheral hypoperfusion, venous lactate >2 mmol/L and/or on mechanical support or treatment with intravenous vasodilators, inotropes or vasopressors were excluded. Other exclusion criteria were concomitant or planned treatment with oral digoxin (could be randomized if the plasma concentration of digoxin at screening was <0.5 ng/ml); acute coronary syndrome or stroke within the past 3 months; coronary artery bypass graft or percutaneous coronary intervention within the past month or planned in the next month; life-threatening ventricular arrhythmia or implantable cardioverter defibrillator shock within the past month; sustained ventricular tachycardia in the last 3 months or uncontrolled arrhythmia; fever >38° C.; estimated glomerular filtration rate (eGFR)[…]; serum potassium >5.3 or <3.5 mmol/L; stroke or transient ischaemic accident within the past 3 months; and acute respiratory distress syndrome.
The patients were randomized centrally, using an interactive response technology, to receive istaroxime or placebo at a ratio of 1:1. Study medication was supplied in uniquely-numbered kits containing identical vials of lyophilized powder (istaroxime plus lactose), reconstituted by adding 5 ml saline to the vial. Istaroxime was administered as a continuous infusion 1.0 μg/kg/min for 24 h. The infusion rate could be decreased at the discretion of the investigator based on the development of tolerability issues (such as nausea), significant bradycardia, or greater than desired BP elevation.
The primary efficacy endpoint was the area under the curve representing the change in SBP from baseline, start of study drug infusion, through 6 h (SBP AUC). The secondary endpoints included SBP AUC through 24 h; changes from baseline in SBP (particularly at 6 and 24 h), diastolic blood pressure (DBP) and mean arterial pressure (MAP); changes from baseline in heart rate (HR); treatment failure score (based on death, circulatory, respiratory, or renal mechanical support or intravenous inotrope or vasopressor treatment, and changes in SBP); treatment failure defined as death or need for circulatory, respiratory, or renal mechanical support or intravenous inotrope or vasopressor treatment; increase from baseline in SBP >5% and/or >10 mmHg; changes in quality of life measured by the EuroQol 5 Dimension 5 Level (EQ-5D-5L); change from baseline to 24 h in echocardiography parameters; changes in troponin and N-terminal pro-B-type natriuretic peptide (NT-proBNP); hospital readmission for heart failure and for any cause by day 30; in-hospital worsening heart failure to day 5; and length of hospital stay. In-hospital worsening heart failure was defined as worsening signs and/or symptoms of heart failure since the previous assessment that required an intensification of intravenous therapy for heart failure or mechanical ventilatory, renal, or circulatory support. The safety endpoints were assessed throughout the study and included the incidence of adverse events; changes in vital signs and in 12-lead electrocardiogram (ECG) parameters; incidence of clinically or haemodynamically significant episodes of supraventricular or ventricular arrhythmias detected by continuous ECG monitoring; standard laboratory parameters; renal function measures; cardiac troponin I or T; and mortality through day 30. […]

[3] = system: patients with ADHF; settings: cited from earlier work
[4] = 24 h Post-Treatment, adjusted least square mean change
[5] = 24 h Post-Treatment, adjusted least square mean change, listed as istaroxime
[6] = 24 h Post-Treatment, mean, n = 29

C[C@]12CCC(=NOCCN)C[C@@H]1C(=O)C[C@@H]1[C@@H]2CC[C@]2(C)C(=O)CC[C@@H]12 [Istaroxime]
HR during infusion ([1]; 6-hour infusion): tended to decrease
SBP during infusion ([1]; 6-hour infusion): slightly increased in a dose-dependent manner
change from baseline in PCWP ([1]; after 6 h infusion, vs placebo, plateaued after 3 hours): dose-dependent improvements in PCWP
adjusted SBP increase at 6 h ([2]; 6 h after infusion start, (SE), p=0.045 vs placebo): 12.3 (SE 1.71) mmHg
Mitral Regurgitation Mild, number of patients ([2]; 24 h Post Treatment): 11
Mitral Regurgitation Mild, share of patients ([2]; 24 h Post Treatment): (39%)
Mitral Regurgitation Moderate, number of patients ([2]; 24 h Post Treatment): 16
Mitral Regurgitation Moderate, share of patients ([2]; 24 h Post Treatment): (57%)
Mitral Regurgitation None, number of patients ([2]; 24 h Post Treatment): 1
Mitral Regurgitation None, share of patients ([2]; 24 h Post Treatment): (4%)
Cardiac Index, Change from Baseline [2, 4]: 0.156 L/min/m^2
Cardiac Output, Change from Baseline [2, 4]: 0.23 L/min
E/A Ratio, Change from Baseline [2, 4]: −0.380
E/Ea Ratio, Change from Baseline [2, 4]: −0.615
Ejection Time, Change from Baseline [2, 4]: -2.807 ms
Inferior Vena Cava Diameter, Change from Baseline [2, 4]: −2.503 mm
Left Atrial Area, Change from Baseline [2, 4]: −1.817 cm^2
Left Atrial Volume, Change from Baseline [2, 4]: -7.440 mL
Left Ventricular Ejection Fraction, Change from Baseline [2, 4]: 2.678%
Left Ventricular End-Diastolic Diameter, Change from Baseline [2, 4]: −0.668 mm
Left Ventricular End-Diastolic Volume, Change from Baseline [2, 4]: -6.501 mL
Left Ventricular End-Systolic Diameter, Change from Baseline [2, 4]: −0.719 mm
Left Ventricular End-Systolic Volume, Change from Baseline [2, 4]: -8.692 mL
Pulmonary Artery Systolic Pressure, Change from Baseline [2, 4]: −7.084 mmHg
Stroke Volume Index, Change from Baseline [2, 4]: 4.001 ml/m^2
Tricuspid Annular Plane Systolic Excursion, Change from Baseline [2, 4]: 0.0860 mm
Cardiac Index, Change from Baseline [2, 5]: 0.16 ± 0.1 L/min/m^2
Left Atrial Area, Change from Baseline [2, 5]: −1.8+0.5 cm^2
Left Ventricular End-Diastolic Volume, Change from Baseline [2, 5]: −6.5+4.9 ml
Left Ventricular End-Systolic Volume, Change from Baseline [2, 5]: −8.7+4.2 ml
Cardiac Index, Observed [2, 6]: 2.1 L/min/m^2
Cardiac Output, Observed [2, 6]: 3.93 L/min
E/A Ratio, Observed [2, 6]: 1.5
E/Ea Ratio, Observed [2, 6]: 12.2
Ejection Time, Observed [2, 6]: 219.0 ms
Inferior Vena Cava Diameter, Observed [2, 6]: 19.5 mm
Left Atrial Area, Observed [2, 6]: 27.1 cm^2
Left Atrial Volume, Observed [2, 6]: 95.2 mL
Left Ventricular Ejection Fraction, Observed [2, 6]: 29.5%
Left Ventricular End-Diastolic Diameter, Observed [2, 6]: 61.3 mm
Left Ventricular End-Diastolic Volume, Observed [2, 6]: 194.3 mL
Left Ventricular End-Systolic Diameter, Observed [2, 6]: 52.8 mm
Left Ventricular End-Systolic Volume, Observed [2, 6]: 135.7 mL
Pulmonary Artery Systolic Pressure, Observed [2, 6]: 36.8 mmHg
Stroke Volume Index, Observed [2, 6]: 28.3 ml/m^2
Tricuspid Annular Plane Systolic Excursion, Observed [2, 6]: 15.9 mm
adjusted change in SBP at 24 h ([2]; 24 h after infusion start, (SE), p=0.543 vs placebo): 17.1 (SE 2.36) mmHg
change in DBP ([2]; FIG. 3C, up to 96 h, persisting beyond the 24 h of drug administration): increases were noted
change in MAP ([2]; FIG. 4A, persisting beyond the 24 h of drug administration): increases were noted
adjusted mean 6 h AUC of change in SBP from baseline ([2]; infusion start to hour 6, istaroxime iv infusion 24 h, adjusted mean (SE), p=0.017 vs placebo): 53.1 (SE 6.88) mmHg·h
adjusted mean 24 h SBP AUC ([2]; infusion start to hour 24, adjusted mean (SE), p=0.025 vs placebo): 291.2 (SE 27.5) mmHg·h
increase of adjusted mean 6 h SBP AUC versus placebo ([2]; istaroxime 53.1 vs placebo 30.9 mmHg·h): 72%
increase of adjusted mean 24 h SBP AUC versus placebo ([2]; istaroxime 291.2 vs placebo 208.7 mmHg·h): 40%
effect on heart rate / pulse ([2]; patients with pre-cardiogenic shock): without effects on pulse; also recorded: not by increasing the heart rate
E/Ea ratio ([3]; 0.5 μg/kg/min and 1.0 μg/kg/min infused for up to 24 hours, vs placebo): an improvement in both treatment groups
diastolic function parameters ([3]; measured after 6 hours of infusion): significant improvements for most of the diastolic function parameters
